According to paper PMC8457749, “Design, Synthesis, and Anticancer Activity Evaluation of Hybrids of Azoles and Barbituric Acids” (Iranian Journal of Pharmaceutical Research : IJPR, 2021):

How the values were obtained:
L02 cells = assay: Antiproliferative activity against normal cell line L02; format: cell-based; conditions: Homo sapiens, L02, read-out: L02 IC50
Protocol: The lack of selective cytotoxicity is the main factor that restricts the dose of most conventional chemotherapeutic agents ([21]). […] Selectivity indexes between cancer cells and L02 cells were calculated.

MCF-7 cells = assay: MTT antiproliferative assay, MCF-7; format: cell-based, human; conditions: for inhibition at 100 µM / IC50: Homo sapiens, MCF7, 48 h; for inhibition at 100 µM: read-out: Growth Inhibition at 100 μM (%) MCF-7; for IC50: read-out: IC50 MCF-7; for Selectivity index MCF-7: IC50 on normal cells (L02)/IC50 on tumor cells (MCF-7)
Protocol: (§1) The antiproliferative activity of the target compounds against the panel of three different human cancer cell lines, liver (BEL-7402), colorectal (HCT-116), and breast (MCF-7) cell lines was evaluated using a standard MTT-based colorimetric assay. All cell lines were obtained from the Key Laboratory of Natural Resources and Functional Molecules of the Changbai Mountain (Yanbian University) and maintained in Dulbecco’s modified Eagle’s medium (DMEM) and RPMI Media 1640 (RPMI1640), supplemented with 10% foetal bovine serum (FBS) at 37 °C in a humidified atmosphere containing 5% CO2.
(§2) The cells were plated in 96-well plates at appropriate densities to ensure exponential growth throughout the experimental period (9 × 10^3 cells per well) and then allowed to adhere for 24 h. the cells were then treated for 48 h with each compound. After 48 h of incubation, 10 μL of MTT solution was added to each well to a final concentration of 2 mg/mL. the plates were then incubated for a further 4 h. After incubation, the MTT solution was removed and 150 μL of DMSO was added to each well for coloration. The plates were shaken vigorously for 10 min at room temperature to ensure complete solubilisation. The optometric density (OD) was read on a microplate reader (EL × 800, BioTek, Highland Park, Winooski, VT, USA) at 492 nm, and the data were subsequently analysed. The percentage of cell growth inhibition was calculated from the following Equation:
(§3) Inhibitory rate (%) = [1 − (ODtreated − ODblank)/(ODcontrol − ODblank)] × 100%
(§4) To obtain the antiproliferative activity of compounds 3a-3s and 4a-4d, the compounds were selected in the same way with four serial concentrations (1, 10, 50 and 100 μM) of those compounds. The optometric density (OD) reading was then used to calculate the IC50.

BEL-7402 cells [1] = assay: MTT antiproliferative assay, BEL-7402; format: cell-based, human; conditions: for inhibition at 100 µM / IC50: Homo sapiens, Bel-7402, 48 h; for inhibition at 100 µM: read-out: Growth Inhibition at 100 μM (%) BEL-7402; for IC50: read-out: IC50 BEL-7402; for Selectivity index BEL-7402: IC50 on normal cells (L02)/IC50 on tumor cells (BEL-7402)
Protocol: as §1, §2, §3, §4

BEL-7402 cells [2] = assay: Apoptosis by flow cytometry (annexin V-FITC/PI); format: cell-based, human; conditions: 24 h
Protocol: Apoptosis was detected using an Apoptosis Detection Kit (Invitrogen, Eugene, OR, USA). Briefly, BEL-7402 cells were cultured in 6-well plates (1.0 × 10^6 cells per well) and incubated at 37 °C for 12 h. Cells with exponential growth were then incubated with compound 3s at different concentrations (5 μM and 20 μM). Following 24 h of incubation, the cells were collected, washed twice with PBS and once with 1 × binding buffer, and then stained with 5 […] and […] (5 mg/mL) in 1 × binding buffer for 30 min at 20 °C in the dark. Apoptotic cells were enumerated using a FACSCalibur flow cytometer with Cell Quest software (Becton–Dickinso, Franklin Lakes, NJ, USA).

HCT-116 cells = assay: MTT antiproliferative assay, HCT-116; format: cell-based, human; conditions: for inhibition at 100 µM / IC50: Homo sapiens, HCT-116, 48 h; for inhibition at 100 µM: read-out: Growth Inhibition at 100 μM (%) HCT-116; for IC50: read-out: IC50 HCT-116; for Selectivity index HCT-116: IC50 on normal cells (L02)/IC50 on tumor cells (HCT-116)
Protocol: as §1, §2, §3, §4

HCT116 cancer cells = test system: HCT116 cancer cells; design: method as in PMID 30981113; conditions: HCT116 cancer cells ref 11; read-out: IC50 anti-proliferative activity HCT116; cited from earlier work
HCT116 cell line = test system: HCT116 cell line; design: method as in earlier work; conditions: cited from earlier work
MCF-7 cell line = test system: MCF-7 cell line; design: method as in earlier work; conditions: cited from earlier work

| Compound | IC50 (L02 cells) [µM] | inhibition at 100 µM (MCF-7 cells) [%] | IC50 (MCF-7 cells) [µM] | inhibition at 100 µM (BEL-7402 cells [1]) [%] | IC50 (BEL-7402 cells [1]) [µM] | inhibition at 100 µM (HCT-116 cells) [%] | IC50 (HCT-116 cells) [µM] | melting point [°C] | other results |
| --- | --- | --- | --- | --- | --- | --- | --- | --- | --- |
| O=C1NC(=O)C(=Cc2cn(-c3ccc(C(F)(F)F)cc3)nn2)C(=O)N1 [Compound 3s, 5-((1-(4-(trifluoromethyl)phenyl)-1H-1,2,3-triazol-4-yl)methylene)pyrimidine-2,4,6(1H,3H,5H)-trione] | 82.2 ± 4.8 | 90.4 ± 5.3 | 8.98 ± 0.99 | 95.3 ± 4.9 | 4.02 ± 0.5 | 62.9 ± 1.9 | 21.5 ± 1.19 |  | Selectivity index MCF-7 (MCF-7 cells): 9.15; Selectivity index BEL-7402 (BEL-7402 cells [1]): 20.45; early-stage apoptosis rate (LR) (BEL-7402 cells [2]; 5 μM): 1.33%; late-stage apoptosis rate (UR) (BEL-7402 cells [2]; 5 μM): 4.94%; dead cells (UL) (BEL-7402 cells [2]; 20 μM): 27.40%; early-stage apoptosis rate (LR) (BEL-7402 cells [2]; 20 μM): 3.37%; late-stage apoptosis rate (UR) (BEL-7402 cells [2]; 20 μM): 35.78%; Selectivity index HCT-116 (HCT-116 cells): 3.82 |
| O=C1NC(=O)C(=Cc2cn(-c3ccc(Cl)cc3)nn2)C(=O)N1 [Compound 3g, 5-((1-(4-chlorophenyl)-1H-1,2,3-triazol-4-yl)methylene)pyrimidine-2,4,6(1H,3H,5H)-trione] | 80.2 ± 6 | 23.9 ± 2.9 | > 100 | 46.6 ± 4.6 | > 100 | 68.5 ± 4.6 | 9.59 ± 1.01 | 250 | Selectivity index HCT-116 (HCT-116 cells): 8.36 |
| O=C1NC(=O)C(=Cc2cn(-c3cccc(Br)c3)nn2)C(=O)N1 [Compound 3k, 5-((1-(3-bromophenyl)-1H-1,2,3-triazol-4-yl)methylene)pyrimidine-2,4,6(1H,3H,5H)-trione] | 66.4 ± 5.1 | 31.7 ± 2.8 | > 100 | 81.6 ± 3.6 | 19.2 ± 1.8 | 88.9 ± 3.1 | 19.4 ± 1.67 | 250 | Selectivity index BEL-7402 (BEL-7402 cells [1]): 3.46; Selectivity index HCT-116 (HCT-116 cells): 3.42 |
| C=C1C(=O)[C@]23[C@H](OC(=O)c4cn(-c5ccc(OC)cc5)nn4)[C@H]1CC[C@H]2[C@@]12CO[C@]3(O)[C@@H](O)[C@@H]1C(C)(C)CC[C@@H]2O [Compound C] |  |  |  |  |  |  |  |  | IC50 (HCT116 cancer cells): 1.94 µM |
| O=C1NC(=O)C(=Cc2cn(-c3cccc(F)c3)nn2)C(=O)N1 [Compound 3c, 5-((1-(3-fluorophenyl)-1H-1,2,3-triazol-4-yl)methylene)pyrimidine-2,4,6(1H,3H,5H)-trione] | 82.3 ± 4 | 34.6 ± 1.8 | > 100 | 79 ± 3.9 | 12.2 ± 0.91 | 48.4 ± 2.3 | > 100 | 250 | Selectivity index BEL-7402 (BEL-7402 cells [1]): 6.74 |
| O=C1NC(=O)C(=Cc2cn(-c3cccc(Cl)c3)nn2)C(=O)N1 [Compound 3f, 5-((1-(3-chlorophenyl)-1H-1,2,3-triazol-4-yl)methylene)pyrimidine-2,4,6(1H,3H,5H)-trione] | 93.9 ± 5.9 | 58 ± 3.2 | 29.1 ± 0.34 | 75.2 ± 3 | 15.9 ± 1.32 | 79.3 ± 5.6 | 14.9 ± 0.55 | 250 | Selectivity index MCF-7 (MCF-7 cells): 3.22; Selectivity index BEL-7402 (BEL-7402 cells [1]): 5.89; Selectivity index HCT-116 (HCT-116 cells): 6.28 |
| O=C1NC(=O)C(=Cc2cn(-c3ccc(Cl)c(Cl)c3)nn2)C(=O)N1 [Compound 3i, 5-((1-(3,4-dichlorophenyl)-1H-1,2,3-triazol-4-yl)methylene)pyrimidine-2,4,6(1H,3H,5H)-trione] |  | 14.2 ± 1.5 | > 100 | 47.2 ± 4.7 | > 100 | 69.3 ± 2.9 | 55.2 ± 2.31 | 250 |  |
| COc1ccc(-n2cc(C=C3C(=O)NC(=O)NC3=O)nn2)cc1OC [Compound 3p, 5-((1-(3,4-dimethoxyphenyl)-1H-1,2,3-triazol-4-yl)methylene)pyrimidine-2,4,6(1H,3H,5H)-trione] |  | 18.6 ± 1.7 |  | 38 ± 1.9 |  | 43.9 ± 2.9 |  | 250 |  |
| COc1ccc(-n2cc(C=C3C(=O)NC(=O)NC3=O)nn2)cc1 [Compound 3o, 5-((1-(4-methoxyphenyl)-1H-1,2,3-triazol-4-yl)methylene)pyrimidine-2,4,6(1H,3H,5H)-trione] |  | 22.6 ± 2.7 |  | 28.4 ± 3.1 |  | 7.9 ± 0.6 |  | 250 |  |
| O=C1NC(=O)C(=Cc2cn(-c3ccccc3)nn2)C(=O)N1 [Compound 3a, 5((1-phenyl-1H-1,2,3-triazol-4-yl)methylene)pyrimidine-2,4,6(1H,3H,5H)-trione] |  | 30.9 ± 2.6 |  | 54 ± 3.4 |  | 42.7 ± 2.5 |  | 250 |  |
| C=C1C(=O)[C@]23[C@H](O)[C@H]1CC[C@H]2[C@@]12CO[C@]3(O)[C@@H](O)[C@@H]1C(C)(C)CC[C@@H]2O [oridonin] |  |  |  |  |  |  |  |  | IC50 (HCT116 cancer cells): 6.84 µM |
| Cc1nn(-c2cccc(F)c2)c(C)c1C=C1C(=O)NC(=O)NC1=O [Compound 4b, 5-((1-(3-fluorophenyl)-3,5-dimethyl-1H-pyrazol-4-yl)methylene)pyrimidine-2,4,6(1H,3H,5H)-trione] |  | < 5 |  | 14.7 ± 1.2 |  | 9.1 ± 1.2 |  | 250 |  |
| O=C1NC(=O)C(=Cc2cn(-c3ccc(F)cc3)nn2)C(=O)N1 [Compound 3d, 5-((1-(4-fluorophenyl)-1H-1,2,3-triazol-4-yl)methylene)pyrimidine-2,4,6(1H,3H,5H)-trione] |  | 34.1 ± 2.3 |  | 31.9 ± 2.8 |  | 31.6 ± 1.9 |  | 250 |  |
| CC1=NN=C(C)C1=NNc1sc2c(c1C(N)=O)CCCCC2 [D] |  |  |  |  |  |  |  |  | IC50 (HCT116 cell line): 31.1 µM; IC50 (MCF-7 cell line): 22.7 µM |
| O=C1NC(=O)C(=Cc2cn(-c3cc(Cl)ccc3Cl)nn2)C(=O)N1 [Compound 3h, 5-((1-(2,5-dichlorophenyl)-1H-1,2,3-triazol-4-yl)methylene)pyrimidine-2,4,6(1H,3H,5H)-trione] | 78.8 ± 3.9 | 92.2 ± 8.5 | 75.9 ± 1.98 | 82.1 ± 3.2 | 9.49 ± 1.78 | 81.2 ± 4.2 | 18.9 ± 1.97 | 250 | Selectivity index MCF-7 (MCF-7 cells): 1.04; Selectivity index BEL-7402 (BEL-7402 cells [1]): 8.30; Selectivity index HCT-116 (HCT-116 cells): 4.17 |
| COc1ccccc1-n1cc(C=C2C(=O)NC(=O)NC2=O)nn1 [Compound 3m, 5-((1-(2-methoxyphenyl)-1H-1,2,3-triazol-4-yl)methylene)pyrimidine-2,4,6(1H,3H,5H)-trione] |  | 7.9 ± 1.1 |  | 25.6 ± 2.1 |  | 44.2 ± 3.4 |  | 250 |  |
| Cc1ccc(-n2cc(C=C3C(=O)NC(=O)NC3=O)nn2)cc1 [Compound 3r, 5-((1-p-tolyl-1H-1,2,3-triazol-4-yl)methylene)pyrimidine-2,4,6(1H,3H,5H)-trione] |  | < 5 |  | 39.8 ± 3.1 |  | 52.5 ± 2 |  | 250 |  |
| Cc1cccc(-n2cc(C=C3C(=O)NC(=O)NC3=O)nn2)c1 [Compound 3q, 5-((1-m-tolyl-1H-1,2,3-triazol-4-yl)methylene)pyrimidine-2,4,6(1H,3H,5H)-trione] |  | 91.9 ± 2.4 | 29.8 ± 2.01 | 23.7 ± 2.1 | > 100 | 94.8 ± 6.3 | 32.8 ± 1.9 | 250 |  |
